{"source": "patent US10695341B2", "about": "“Compositions and methods for treating endometriosis” (UNIVERSITY OF SOUTH FLORIDA, priority 2014, dated 2020)", "key": {"endometriotic lesions": {"system": "endometriotic lesions", "assay": "Effect of hydroxychloroquine on lesion formation in mouse endometriosis model (Example 3)", "assay_type": "in vivo, C57BL/6 mice", "conditions": "60 mg/kg intraperitoneal, lesions evaluated 14 days after start; P between groups 0.0019", "method": "To determine the effect of hydroxychloroquine on endometriosis in vivo, mice (6-8 week old C57BL/6 background mice) were fed on a mouse diet and given ad libitum access to water and kept on a light/dark cycle of 12/12 h under controlled conditions. Prior to any invasive procedure, the mice were anesthetized using Isofluorane (initial vaporizer flow rate of 3-5%) implemented once prior to an invasive procedure. The mice were also given Ketoprofen (10 mg/kg) subcutaneously as a post-operative analgesic agent for the first 24 hours and then as needed. All surgical procedures were performed under sterile conditions. Mice were ordered at 3-5 weeks of age to receive them and allow them to acclimate to the housing conditions prior to the start of the investigation when the mice are about 6 to about 8 weeks of age. […] The fragments were suspended in about 0.6 ml of phosphate buffered saline and were injected with an 18-gauge needle through the abdominal wall below the umbilicus into the peritoneal cavity of recipient mice with a ratio of one donor to two recipients (equivalent quantities). […] Lesions were identified, removed, and analyzed. […]"}, "peritoneal macrophages": {"system": "peritoneal macrophages", "assay": "Peritoneal macrophage flow cytometry (CD11b, F4/80)", "assay_type": "in vivo, mouse", "conditions": "HCQ-treated vs PBS-treated mice, p=0.0079", "method": "The pellet obtained after centrifugation of the peritoneal fluid wash (see above) was utilized for macrophage staining. When necessary, red blood cell lysis was performed according to the manufacturer's protocol (eBioscience, San Diego, Calif.). The cell pellets were resuspended in 1 ml cold PBS and transferred to flow cytometry tubes. Samples were centrifuged for 1 min at 1,390 rpm. The supernatant was decanted and cells were resuspended in 100 μl of PBS. Cells were blocked using 0.5 μg of Mouse BD Fc, Block™ (#553141, BD Pharmingen, San Jose, Calif.) for 5 min on ice. The cells were incubated in 0.4 μg of APC Rat anti-mouse CD11b clone M1/70 (#553312, BD Pharmingen, San Jose, Calif.) and anti mPE-F4/80/EMR1 (# FAB5580C, R&D Systems, Minneapolis, Minn.)) at room temperature for 30 min, protected from light. After incubation, 700 μl of PBS was added to each tube and centrifuged for 1 min at 4° C. The supernatant was decanted, and the cells were resuspended in 300 μl in PBS and analyzed by flow cytometry."}}}
{"smiles": "CCN(CCO)CCCC(C)Nc1ccnc2cc(Cl)ccc12", "note": "(centres unmarked) [HCQ, hydroxychloroquine]", "values": [{"measurement": "effect on endometriotic lesions (FIG. 5)", "setting": "endometriotic lesions", "result": "effectiveness"}, {"measurement": "macrophage numbers in peritoneal cavity", "setting": "peritoneal macrophages", "result": "significant increase"}]}
